Like-named read-outs stand apart in the source and are kept apart here.
Assays:
[1] = test system: Post-COVID patients; assay: MFI-20 fatigue test, Example 2; assay type: in vivo, human; details: plus breathing exercise
Description: The patient-reported outcomes for COVID-19-related signs and symptoms (e.g. headache, concentrating difficulties, anosmia, ageusia) were evaluated with VAS scale. Fatigue, comprising the conditions of the group general fatigue, physical fatigue, metal fatigue, reduced activity, and reduced motivation, was evaluated with a multidimensional fatigue inventory test (MFI-20 test, Smets E. M. et al., J. Psychosom. Res. 1995, 39 (3), 315).

[2] = both, human, in vivo, 3 months
[3] = both, human, in vivo
[4] = test system: PCFS patients; assay: MFI-20 fatigue test, Example 3; assay type: in vivo, human
[5] = test system: PCFS patients; assay type: in vivo, human
[6] = test system: PCFS patients; assay: Incremental treadmill test until exhaustion, Example 3; assay type: in vivo, human
Description: In addition the time to exhaustion of the patients was evaluated by an incremental test until exhaustion on a motorized treadmill.

SMILES: CN(CC(=O)O)C(=N)N.O [Creatine + Breathing Exercise, creatine monohydrate]
- General fatigue (MFI-20 score) ([1]; 3 months): 12.3
- Mental fatigue (MFI-20 score) ([1]; 3 months): 11.5
- Physical fatigue (MFI-20 score) ([1]; 3 months): 12.2
- Reduced activity (MFI-20 score) ([1]; 3 months): 12.8
- Reduced motivation (MFI-20 score) ([1]; 3 months): 12.8
- General fatigue (MFI-20 score) ([1]; Baseline): 11.5
- Mental fatigue (MFI-20 score) ([1]; Baseline): 11.8
- Physical fatigue (MFI-20 score) ([1]; Baseline): 12.3
- Reduced activity (MFI-20 score) ([1]; Baseline): 12.5
- Reduced motivation (MFI-20 score) ([1]; Baseline): 13.5
- Cohen's effect size (d) for creatine increment, right frontal grey matter [2]: 1.76
- Cohen's effect size (d) for creatine increment, vastus medialis muscle [2]: 0.77

SMILES: O=C[C@H](O)[C@@H](O)[C@H](O)[C@H](O)CO [Glucose, glucose, reference compound]
- Total creatine, Left frontal grey matter [3]: 6.8 ± 0.4 mM
- Total creatine, Left frontal white matter [3]: 5.8 ± 0.4 mM
- Total creatine, Left mesial grey matter [3]: 7.6 ± 0.7 mM
- Total creatine, Left paracentral grey matter [3]: 7.0 ± 0.9 mM
- Total creatine, Left parietal white matter [3]: 5.4 ± 0.6 mM
- Total creatine, Left precentral white matter [3]: 5.6 ± 0.6 mM
- Total creatine, Right frontal grey matter [3]: 7.0 ± 0.9 mM
- Total creatine, Right frontal white matter [3]: 5.6 ± 0.8 mM
- Total creatine, Right mesial grey matter [3]: 7.3 ± 0.6 mM
- Total creatine, Right paracentral grey matter [3]: 6.4 ± 0.7 mM
- Total creatine, Right parietal white matter [3]: 5.2 ± 0.7 mM
- Total creatine, Right precentral white matter [3]: 5.4 ± 0.6 mM
- Total creatine, Thalamus [3]: 5.5 ± 0.5 mM
- Total creatine, Vastus medialis muscle [3]: 30.1 ± 12.7 mM
- Total creatine, Left frontal grey matter ([3]; 8 weeks): 6.3 ± 0.9 mM
- Total creatine, Left frontal white matter ([3]; 8 weeks): 5.6 ± 1.0 mM
- Total creatine, Left mesial grey matter ([3]; 8 weeks): 7.4 ± 0.6 mM
- Total creatine, Left paracentral grey matter ([3]; 8 weeks): 6.9 ± 0.7 mM
- Total creatine, Left parietal white matter ([3]; 8 weeks): 5.3 ± 0.5 mM
- Total creatine, Left precentral white matter ([3]; 8 weeks): 5.6 ± 0.5 mM
- Total creatine, Right frontal grey matter ([3]; 8 weeks): 7.0 ± 0.7 mM
- Total creatine, Right frontal white matter ([3]; 8 weeks): 5.6 ± 0.8 mM
- Total creatine, Right mesial grey matter ([3]; 8 weeks): 7.0 ± 1.0 mM
- Total creatine, Right paracentral grey matter ([3]; 8 weeks): 6.2 ± 1.1 mM
- Total creatine, Right parietal white matter ([3]; 8 weeks): 5.2 ± 0.7 mM
- Total creatine, Right precentral white matter ([3]; 8 weeks): 5.3 ± 0.7 mM
- Total creatine, Thalamus ([3]; 8 weeks): 5.5 ± 0.7 mM
- Total creatine, Vastus medialis muscle ([3]; 8 weeks): 28.5 ± 9.2 mM
- General fatigue (MFI-20 score) ([4]; 8 weeks): 11.6
- Mental fatigue (MFI-20 score) ([4]; 8 weeks): 11.0
- Physical fatigue (MFI-20 score) ([4]; 8 weeks): 12.6
- Reduced activity (MFI-20 score) ([4]; 8 weeks): 12.6
- Reduced motivation (MFI-20 score) ([4]; 8 weeks): 10.8
- General fatigue (MFI-20 score) ([4]; Baseline): 12.0
- Mental fatigue (MFI-20 score) ([4]; Baseline): 11.4
- Physical fatigue (MFI-20 score) ([4]; Baseline): 12.8
- Reduced activity (MFI-20 score) ([4]; Baseline): 12.6
- Reduced motivation (MFI-20 score) ([4]; Baseline): 10.0
- Ageusia (VAS scale) ([5]; 8 weeks): 0.6
- Anosmia (VAS scale) ([5]; 8 weeks): 1.0
- Concentrating difficulties (VAS scale) ([5]; 8 weeks): 3.0
- Headache (VAS scale) ([5]; 8 weeks): 2.8
- Malaise (VAS scale) ([5]; 8 weeks): 3.0
- Ageusia (VAS scale) ([5]; Baseline): 2.2
- Anosmia (VAS scale) ([5]; Baseline): 2.6
- Concentrating difficulties (VAS scale) ([5]; Baseline): 4.4
- Headache (VAS scale) ([5]; Baseline): 3.8
- Malaise (VAS scale) ([5]; Baseline): 4.6
- Time to exhaustion ([6]; 8 weeks): 908 s
- Time to exhaustion ([6]; Baseline): 915 s
- Change of time to exhaustion ([6]; post-administration (8 weeks) vs baseline): -7 s

Source: patent publication US20250302788A1, “COMPOSITION COMPRISING CREATINE FOR USE IN THE TREATMENT OF POST VIRAL FATIGUE SYNDROME” (Alzchem Trostberg GmbH, priority 2022, published 2025)
